Data reported in PubChem BioAssay (NCI).
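Test compounds were applied to cells in 96-well plates for 48 hours at 5 doses. TGI marks complete inhibition of growth.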

Experiments:
Assay in all cases: NCI-60 cell line screen, 48 h
ACHN renal = test system: ACHN renal
EKVX NSCLC = test system: EKVX NSCLC
SF-539 CNS = test system: SF-539 CNS
MOLT-4 leukemia = test system: MOLT-4 leukemia
HCT-116 colon = test system: HCT-116 colon
M14 melanoma = test system: M14 melanoma
XF 498 CNS = test system: XF 498 CNS
LXFL 529 NSCLC = test system: LXFL 529 NSCLC
SF-268 CNS = test system: SF-268 CNS
SK-OV-3 ovarian = test system: SK-OV-3 ovarian
DMS 114 small cell lung = test system: DMS 114 small cell lung
NCI-H23 lung = test system: NCI-H23 lung
IGROV1 ovarian = test system: IGROV1 ovarian
HCT-15 colon = test system: HCT-15 colon
CAKI-1 renal = test system: CAKI-1 renal
HCC-2998 colon = test system: HCC-2998 colon
HT29 colon = test system: HT29 colon
SF-295 CNS = test system: SF-295 CNS
NCI-H522 lung = test system: NCI-H522 lung
HOP-18 NSCLC = test system: HOP-18 NSCLC
NCI-H460 lung = test system: NCI-H460 lung
UACC-257 melanoma = test system: UACC-257 melanoma
SNB-75 CNS = test system: SNB-75 CNS
UO-31 renal = test system: UO-31 renal
LOX IMVI melanoma = test system: LOX IMVI melanoma
MALME-3M melanoma = test system: MALME-3M melanoma
SW-620 colon = test system: SW-620 colon
786-0 renal = test system: 786-0 renal
KM20L2 colon = test system: KM20L2 colon
DLD-1 colon = test system: DLD-1 colon
OVCAR-4 ovarian = test system: OVCAR-4 ovarian
SNB-19 CNS = test system: SNB-19 CNS
KM12 colon = test system: KM12 colon
OVCAR-3 ovarian = test system: OVCAR-3 ovarian
UACC-62 melanoma = test system: UACC-62 melanoma
NCI-H226 lung = test system: NCI-H226 lung
M19-MEL melanoma = test system: M19-MEL melanoma
TK-10 renal = test system: TK-10 renal
OVCAR-8 ovarian = test system: OVCAR-8 ovarian
SNB-78 CNS = test system: SNB-78 CNS
SK-MEL-5 melanoma = test system: SK-MEL-5 melanoma
RPMI-8226 leukemia = test system: RPMI-8226 leukemia
CCRF-CEM leukemia = test system: CCRF-CEM leukemia
COLO 205 colon = test system: COLO 205 colon
HL-60(TB) leukemia = test system: HL-60(TB) leukemia
HOP-62 NSCLC = test system: HOP-62 NSCLC
HOP-92 NSCLC = test system: HOP-92 NSCLC
DMS 273 small cell lung = test system: DMS 273 small cell lung
RXF 393 renal = test system: RXF 393 renal
SN12C renal = test system: SN12C renal
K-562 leukemia = test system: K-562 leukemia
OVCAR-5 ovarian = test system: OVCAR-5 ovarian
U251 CNS = test system: U251 CNS
RXF-631 renal = test system: RXF-631 renal
SK-MEL-28 melanoma = test system: SK-MEL-28 melanoma
A498 renal = test system: A498 renal
A549 NSCLC = test system: A549 NSCLC

Measured: TGI

N#CCCN(CCC#N)c1ccc(C(=O)NN)cc1
> 100 µM: all assays above
